Measurements taken from ChEMBL document CHEMBL6083249, “The journey of p38 MAP kinase inhibitors: From bench to bedside in treating inflammatory diseases” (Eur J Med Chem, 2024).

Assays:
[1] = Oral bioavailability in ICR mouse; assay type: ADME, organism-based; settings: in vivo
[2] = Oral bioavailability in rat; assay type: ADME, organism-based; settings: in vivo
[3] = Cmax in ICR mouse at 5 mg/kg, iv by LC-MS/MS analysis; assay type: ADME, organism-based; settings: in vivo
[4] = Cmax in Wistar rat at 3 mg/kg, iv; assay type: ADME, organism-based; settings: in vivo
[5] = Tmax in ICR mouse at 5 mg/kg, iv; assay type: ADME, organism-based; settings: in vivo
[6] = MRT in ICR mouse at 5 mg/kg, iv by LC-MS/MS analysis; assay type: ADME, organism-based; settings: in vivo
[7] = Clearance in ICR mouse at 2 mg/kg, iv; assay type: ADME, organism-based; settings: in vivo
[8] = Clearance in Wistar rat at 3 mg/kg, iv; assay type: ADME, organism-based; settings: in vivo
[9] = Volume of distribution at steady state in ICR mouse at 2 mg/kg, iv; assay type: ADME, organism-based; settings: in vivo, read-out: Vdss
[10] = Volume of distribution at steady state in Wistar rat at 3 mg/kg, iv; assay type: ADME, organism-based; settings: in vivo, read-out: Vdss
Homo sapiens [11] = species: Homo sapiens; experiment: Inhibition of P70S6K (unknown origin) in presence of 10 uM ATP by Z'-LYTE biochemical assay relative to control
[12] = biological target: 3',5'-cyclic-AMP phosphodiesterase 4B (Homo sapiens, UniProt Q07343); experiment: Inhibition of PDE4B1 (unknown origin)
Chain of 3',5'-cyclic-AMP phosphodiesterase 4B (Q07343 whole entry): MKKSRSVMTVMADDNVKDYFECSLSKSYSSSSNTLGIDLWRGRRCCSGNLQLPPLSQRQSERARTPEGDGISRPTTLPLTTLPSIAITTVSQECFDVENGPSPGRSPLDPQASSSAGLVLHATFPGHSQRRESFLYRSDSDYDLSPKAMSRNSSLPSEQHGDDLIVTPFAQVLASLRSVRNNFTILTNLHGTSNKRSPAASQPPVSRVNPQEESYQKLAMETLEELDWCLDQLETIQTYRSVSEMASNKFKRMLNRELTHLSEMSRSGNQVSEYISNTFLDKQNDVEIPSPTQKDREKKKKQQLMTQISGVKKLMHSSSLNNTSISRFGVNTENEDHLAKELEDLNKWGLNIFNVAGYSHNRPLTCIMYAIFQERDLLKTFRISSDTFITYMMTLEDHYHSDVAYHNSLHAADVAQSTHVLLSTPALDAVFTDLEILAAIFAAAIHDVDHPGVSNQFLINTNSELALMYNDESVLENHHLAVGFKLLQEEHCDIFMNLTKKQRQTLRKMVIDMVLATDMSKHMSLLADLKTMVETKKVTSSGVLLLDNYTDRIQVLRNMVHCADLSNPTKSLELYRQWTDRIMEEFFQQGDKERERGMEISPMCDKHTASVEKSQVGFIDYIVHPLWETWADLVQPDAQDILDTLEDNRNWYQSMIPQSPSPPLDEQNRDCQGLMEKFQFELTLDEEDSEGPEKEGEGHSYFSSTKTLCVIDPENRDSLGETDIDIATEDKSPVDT

[13] = biological target: 3',5'-cyclic-AMP phosphodiesterase 4C (Homo sapiens, UniProt Q08493); experiment: Inhibition of PDE4C (unknown origin)
Chain of 3',5'-cyclic-AMP phosphodiesterase 4C (Q08493 whole entry): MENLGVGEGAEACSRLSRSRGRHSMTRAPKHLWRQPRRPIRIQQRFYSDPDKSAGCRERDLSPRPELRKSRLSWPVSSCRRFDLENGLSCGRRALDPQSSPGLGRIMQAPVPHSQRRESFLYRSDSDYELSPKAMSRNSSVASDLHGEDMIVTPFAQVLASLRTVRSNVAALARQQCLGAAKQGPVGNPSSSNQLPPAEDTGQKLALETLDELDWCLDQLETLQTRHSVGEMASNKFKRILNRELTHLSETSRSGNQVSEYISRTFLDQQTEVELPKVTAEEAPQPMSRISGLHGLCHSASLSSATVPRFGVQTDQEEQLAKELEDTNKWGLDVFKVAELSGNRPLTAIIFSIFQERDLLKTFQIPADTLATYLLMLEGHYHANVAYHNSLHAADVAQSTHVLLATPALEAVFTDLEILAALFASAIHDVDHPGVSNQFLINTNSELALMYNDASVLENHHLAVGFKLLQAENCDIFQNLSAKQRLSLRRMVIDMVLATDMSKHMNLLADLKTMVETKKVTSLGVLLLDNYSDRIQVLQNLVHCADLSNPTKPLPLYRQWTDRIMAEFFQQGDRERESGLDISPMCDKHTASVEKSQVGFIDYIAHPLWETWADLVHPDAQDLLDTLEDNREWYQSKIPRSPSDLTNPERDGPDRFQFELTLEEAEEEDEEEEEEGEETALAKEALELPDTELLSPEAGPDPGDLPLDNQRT

[14] = biological target: Mitogen-activated protein kinase 14 (Homo sapiens) (UniProt Q16539); experiment: Inhibition of p38alpha (unknown origin) at 10 uM in presence of ATP relative to control
Chain of Mitogen-activated protein kinase 14 (Homo sapiens) (Q16539 whole entry): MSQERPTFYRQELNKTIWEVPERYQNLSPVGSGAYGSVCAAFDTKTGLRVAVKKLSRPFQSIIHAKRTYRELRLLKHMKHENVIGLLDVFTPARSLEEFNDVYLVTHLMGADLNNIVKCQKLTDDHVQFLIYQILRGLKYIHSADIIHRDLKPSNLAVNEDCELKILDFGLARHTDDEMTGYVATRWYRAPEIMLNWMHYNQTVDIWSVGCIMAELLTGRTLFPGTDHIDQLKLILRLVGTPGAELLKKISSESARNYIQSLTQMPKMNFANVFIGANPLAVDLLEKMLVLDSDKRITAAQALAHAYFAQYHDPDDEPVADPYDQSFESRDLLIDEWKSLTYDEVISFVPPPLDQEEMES

[15] = biological target: Cyclin-dependent kinase 18 (Homo sapiens) (UniProt Q07002); experiment: Inhibition of CDK18 (unknown origin) at 10 uM relative to control
Chain of Cyclin-dependent kinase 18 (Homo sapiens) (Q07002 whole entry, canonical isoform): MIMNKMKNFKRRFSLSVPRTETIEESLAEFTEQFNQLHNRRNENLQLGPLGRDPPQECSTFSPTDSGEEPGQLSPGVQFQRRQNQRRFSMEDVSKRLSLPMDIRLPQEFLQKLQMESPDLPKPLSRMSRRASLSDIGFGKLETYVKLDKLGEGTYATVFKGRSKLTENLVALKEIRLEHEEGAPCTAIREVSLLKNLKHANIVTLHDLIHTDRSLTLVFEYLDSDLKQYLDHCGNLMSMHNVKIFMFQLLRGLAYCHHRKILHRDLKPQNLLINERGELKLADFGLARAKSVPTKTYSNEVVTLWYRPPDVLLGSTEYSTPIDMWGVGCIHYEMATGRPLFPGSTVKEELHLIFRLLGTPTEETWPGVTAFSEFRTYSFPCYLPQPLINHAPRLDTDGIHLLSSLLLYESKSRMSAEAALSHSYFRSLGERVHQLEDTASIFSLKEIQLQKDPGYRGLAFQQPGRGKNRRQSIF

[16] = biological target: Casein kinase I isoform alpha (Homo sapiens) (UniProt P48729); experiment: Inhibition of CK1 alpha (unknown origin) at 10 uM relative ton control
Chain of Casein kinase I isoform alpha (Homo sapiens) (P48729 2-337 limits assumed): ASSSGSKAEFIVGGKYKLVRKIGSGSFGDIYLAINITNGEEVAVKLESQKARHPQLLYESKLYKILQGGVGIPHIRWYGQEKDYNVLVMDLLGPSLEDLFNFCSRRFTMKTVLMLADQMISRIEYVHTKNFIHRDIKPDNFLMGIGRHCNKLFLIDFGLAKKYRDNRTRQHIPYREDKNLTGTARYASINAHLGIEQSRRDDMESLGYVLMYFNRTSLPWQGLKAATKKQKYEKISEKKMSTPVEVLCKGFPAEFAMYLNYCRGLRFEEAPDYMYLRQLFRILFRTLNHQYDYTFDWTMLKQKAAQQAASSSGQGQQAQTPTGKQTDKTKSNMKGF

Homo sapiens [17] = species: Homo sapiens; experiment: Inhibition of MKK6 (unknown origin) at 10 uM relative to control
[18] = biological target: CDK7/Cyclin H/MNAT1 (Homo sapiens) (UniProt P51946+P50613+P51948); experiment: Inhibition of CDK7/cyclinH/MAT1 (unknown origin) at 10 uM in presence of ATP relative to control; assay type: protein-complex assay
[19] = Plasma protein binding in human assessed as unbound fraction at 1 uM incubated for 6 hrs by LC-MS/MS analysis; assay type: ADME, cell-free
[20] = Plasma protein binding in human assessed as unbound fraction at 10 uM incubated for 6 hrs by LC-MS/MS analysis; assay type: ADME, cell-free
[21] = Plasma protein binding in human assessed as unbound fraction at 30 uM incubated for 6 hrs by LC-MS/MS analysis; assay type: ADME, cell-free
[22] = Plasma protein binding in Sprague-Dawley rat assessed as unbound fraction at 1 uM incubated for 6 hrs by LC-MS/MS analysis; assay type: ADME, cell-free
[23] = Plasma protein binding in Sprague-Dawley rat assessed as unbound fraction at 30 uM incubated for 6 hrs by LC-MS/MS analysis; assay type: ADME, cell-free
[24] = Plasma protein binding in Sprague-Dawley rat assessed as unbound fraction at 10 uM incubated for 6 hrs by LC-MS/MS analysis; assay type: ADME, cell-free
[25] = Plasma protein binding in cynomolgus monkey assessed as unbound fraction at 1 uM incubated for 6 hrs by LC-MS/MS analysis; assay type: ADME, cell-free, Macaca fascicularis
[26] = Plasma protein binding in cynomolgus monkey assessed as unbound fraction at 10 uM incubated for 6 hrs by LC-MS/MS analysis; assay type: ADME, cell-free, Macaca fascicularis
[27] = Plasma protein binding in cynomolgus monkey assessed as unbound fraction at 30 uM incubated for 6 hrs by LC-MS/MS analysis; assay type: ADME, cell-free, Macaca fascicularis
[28] = AUC (0 to t) in Beagle dog at 40 mg/kg, po by LC-MS/MS analysis; assay type: ADME, organism-based, Canis lupus familiaris; settings: in vivo
[29] = Tmax in Sprague-Dawley rat at 10 mg/kg, po by LC-MS analysis; assay type: ADME, organism-based; settings: in vivo
[30] = Cmax in Sprague-Dawley rat at 10 mg/kg, po by LC-MS analysis; assay type: ADME, organism-based; settings: in vivo
[31] = AUC (0 to t) in Sprague-Dawley rat at 10 mg/kg, po by LC-MS analysis; assay type: ADME, organism-based; settings: in vivo
[32] = Half life in Sprague-Dawley rat at 10 mg/kg, po by LC-MS/MS analysis; assay type: ADME, organism-based; settings: in vivo
[33] = AUC (0 to infinity) in Sprague-Dawley rat at 10 mg/kg, po by LC-MS/MS analysis; assay type: ADME, organism-based; settings: in vivo
[34] = Tmax in Sprague-Dawley rat at 50 mg/kg, po by LC-MS analysis; assay type: ADME, organism-based; settings: in vivo
[35] = Cmax in Sprague-Dawley rat at 50 mg/kg, po by LC-MS analysis; assay type: ADME, organism-based; settings: in vivo
[36] = AUC (0 to t) in Sprague-Dawley rat at 50 mg/kg, po by LC-MS analysis; assay type: ADME, organism-based; settings: in vivo
[37] = Half life in Sprague-Dawley rat at 50 mg/kg, po by LC-MS/MS analysis; assay type: ADME, organism-based; settings: in vivo
[38] = AUC (0 to infinity) in Sprague-Dawley rat at 50 mg/kg, po by LC-MS/MS analysis; assay type: ADME, organism-based; settings: in vivo
[39] = AUC (0 to infinity) in Sprague-Dawley rat at 20 mg/kg, po by LC-MS/MS analysis; assay type: ADME, organism-based; settings: in vivo
[40] = AUC (0 to infinity) in Sprague-Dawley rat at 30 mg/kg, po by LC-MS/MS analysis; assay type: ADME, organism-based; settings: in vivo
[41] = Half life in Sprague-Dawley rat at 20 mg/kg, po by LC-MS/MS analysis; assay type: ADME, organism-based; settings: in vivo
[42] = Half life in Sprague-Dawley rat at 30 mg/kg, po by LC-MS/MS analysis; assay type: ADME, organism-based; settings: in vivo
[43] = AUC (0 to t) in Sprague-Dawley rat at 20 mg/kg, po by LC-MS analysis; assay type: ADME, organism-based; settings: in vivo
[44] = AUC (0 to t) in Sprague-Dawley rat at 30 mg/kg, po by LC-MS analysis; assay type: ADME, organism-based; settings: in vivo
[45] = Tmax in Sprague-Dawley rat at 20 mg/kg, po by LC-MS analysis; assay type: ADME, organism-based; settings: in vivo
[46] = Tmax in Sprague-Dawley rat at 30 mg/kg, po by LC-MS analysis; assay type: ADME, organism-based; settings: in vivo
[47] = Cmax in Sprague-Dawley rat at 20 mg/kg, po measured for 24 hrs by LC-MS/MS analysis; assay type: ADME, organism-based; settings: in vivo
[48] = AUC (0 to infinity) in Sprague-Dawley rat at 20 mg/kg, po measured for 24 hrs by LC-MS/MS analysis; assay type: ADME, organism-based; settings: in vivo
[49] = Half life in Beagle dog at 5 mg/kg, po by LC-MS/MS analysis; assay type: ADME, organism-based, Canis lupus familiaris; settings: in vivo
[50] = Clearance in rat; assay type: ADME; settings: in vivo
[51] = Clearance in dog; assay type: ADME, Canis lupus familiaris; settings: in vivo

Question: What does the source list for CCCNC(=O)c1cn2ncnc(Nc3cc(C(=O)NC4CC4)ccc3C)c2c1C [BMS-582949]?
Answer: bioavailability [1]: 90%; bioavailability [2]: 60%; Cmax [3]: 15300 nM; Cmax [4]: 7000 nM; Tmax [5]: 1 h; MRT [6]: 3.3 h; clearance [7]: 4.4 mL/min/kg; clearance [8]: 5.4 mL/min/kg; Vd [9]: 0.9 L/kg; Vd [10]: 1.1 L/kg

Question: For CC(=O)Nc1cc(-c2c(-c3ccc(F)cc3)nc([S+](C)[O-])n2C)ccn1 (stereo unspecified), which inhibition (Homo sapiens [11]) is on record?
Answer: 32%

Question: What about the IC50 [12] of the same compound?
Answer: 1.9 µM

Question: And the IC50 [13]?
Answer: 6.4 µM

Question: What about the inhibition [14] of the same compound?
Answer: 35%

Question: And the inhibition [15]?
Answer: 94%

Question: And the inhibition [16]?
Answer: 97%

Question: What about the inhibition (Homo sapiens [17]) of the same compound?
Answer: 62%

Question: And the inhibition [18]?
Answer: 54%

Question: And the fraction unbound at 6 h, 1 µM [19]?
Answer: 0.9

Question: What about the fraction unbound at 6 h, 10 µM [20] of the same compound?
Answer: 0.806

Question: What about the fraction unbound at 6 h, 30 µM [21] of the same compound?
Answer: 0.781

Question: And the fraction unbound at 6 h, 1 µM [22]?
Answer: 0.863

Question: What about the fraction unbound at 6 h, 30 µM [23] of the same compound?
Answer: 0.754

Question: What about the fraction unbound at 6 h, 10 µM [24] of the same compound?
Answer: 0.631

Question: What about the fraction unbound at 6 h, 1 µM [25] of the same compound?
Answer: 0.667

Question: And the fraction unbound at 6 h, 10 µM [26]?
Answer: 0.611

Question: And the fraction unbound at 6 h, 30 µM [27]?
Answer: 0.583

Question: What about the AUCt [28] of the same compound?
Answer: 93.4 µM·h

Question: And the Tmax [29]?
Answer: 2.2 h

Question: And the Cmax [30]?
Answer: 200 nM

Question: And the AUCt [31]?
Answer: 0.95 µM·h

Question: What about the half-life [32] of the same compound?
Answer: 2.7 h

Question: What about the AUC [33] of the same compound?
Answer: 1.04 µM·h

Question: And the Tmax [34]?
Answer: 1.5 h

Question: And the Cmax [35]?
Answer: 590 nM

Question: And the AUCt [36]?
Answer: 3.4 µM·h

Question: What about the half-life [37] of the same compound?
Answer: 3.2 h

Question: And the AUC [38]?
Answer: 3.58 µM·h

Question: What about the AUC [39] of the same compound?
Answer: 2.24 µM·h

Question: And the AUC [40]?
Answer: 3.05 µM·h

Question: And the half-life [41]?
Answer: 3.3 h

Question: What about the half-life [42] of the same compound?
Answer: 3.4 h

Question: And the AUCt [43]?
Answer: 0.31 µM·h

Question: What about the AUCt [44] of the same compound?
Answer: 0.42 µM·h

Question: What about the Tmax [45] of the same compound?
Answer: 2.9 h

Question: And the Tmax [46]?
Answer: 2.3 h

Question: And the Cmax [47]?
Answer: 314 nM

Question: And the AUC [48]?
Answer: 2.24 µM·h

Question: With O=C(CO)N1CCC(c2[nH]nc(-c3ccc(Cl)cc3)c2-c2ccncn2)CC1 [SD-0006] as the compound, how does the half-life [49] read?
Answer: 4.48 h

Question: And the clearance [50]?
Answer: 4.86 mL/min/kg

Question: And the clearance [51]?
Answer: 2.92 mL/min/kg
